Key:
LXR protein = assay: Biacore direct binding experiment
C57BL/6 mice = assay: Fatty liver inhibitory efficacy in T0901317-induced fatty liver model; assay type: in vivo, mouse
From the text: In order to verify the fatty liver inhibitory efficacy of the compound 1 developed in the present invention, C57BL/6 mice were used in this experiment. A fatty liver model was constructed by administering T0901317, which generates fatty liver, to 10-week age C57BL/6 mice while feeding the C57BL/6 mice with general feed-additive. The fatty liver inhibitory efficacy of the compound 1 was observed by orally administering this compound. A mouse fed with 0.75% of only carboxymethylcellulose, as a medication deliver, was used for a negative control group, and a mouse fed with only TO901317 was used for a positive control group. In addition, in order to analyze gene expression of C57BL/6 mouse liver, the mouse livers of the negative control group, the positive control group, and the treatment group were extracted and treated with Trizol, to obtain RNAs. The obtained RNAs were quantified using an absorption spectrometer (Nanodrop), and cDNAs were obtained from RNAs having the same amount among respective groups through an RT-PCR method using oligo dT and reverse transcriptase. The real-time polymerase chain reaction was performed using cDNAs, which were obtained for analysis of mRNA change among groups, as templates, and using primers of transporter genes related to fat synthesis and inflow of fat to the liver. […] Accordingly, the compounds of the present invention and derivatives thereof are expected to play a very innovative role in treatment of alcoholic fatty liver, non-alcoholic fatty liver, and fatty liver due to viral infection.

HepG2 cells = assay: Gene expression regulation in liver cells (real-time PCR); assay type: cell-based; settings: HepG2 human liver cells
Procedure: In order to verify efficacy of the developed liver-X-receptor antagonist, the function of regulating gene expression was identified in mouse liver cells and human liver cells. In the present experiment, mouse liver cells, AML 12 cells and human liver cells, and HepG2 cells were used. AML12 cells were cultured in DMEM medium within a cell incubator with 5% carbon dioxide at 37° C. The medium contained 10% fetal bovine serum (FBS), 100 U/ml penicillin, and 100 μg/ml streptomycin. On day 1 of the experiment, AML12 cells are seeded in 6 well plates. On day 2, when the cells were grown to 80% confluency, the medium was replaced by the DMEM medium not containing serum, and then three wells per treatment group were treated with TO901317 and the developed liver-X-receptor antagonist. […] The extracted RNAs were quantified, and 1 μg of the extracted RNAs per each sample were used in cDNA synthesis. […] The cDNAs synthesized for the real-time polymerase chain reaction were mixed with primer selective for ACC1 or Actine gene and QuantiTech Master Mix (QIAGEN). […] The Ct values per each treatment group were compared with the Ct values of the negative control group, and the differences in expression amount of genes were calculated. […]

3T3-L1 cells = assay: Adipocyte differentiation inhibitory ability in 3T3-L1 cells; assay type: cell-based
Runx2 and TAZ = assay: Western blot of osteoblast differentiation mark factors; assay type: cell-based, mouse; settings: C3H/10T1/2 treated for 6 days
Procedure: An aliquot 116V and an aliquot 116VI extracted and partitioned from sponges are dissolved in a DMSO solvent, and used to treat the C3H/10T1/2 cell line, mesenchymal progenitor cells, at concentrations of 1, 2.5, 5, 10, and 20 ug/ml. […] Since then, the same experiment was performed on the compound (1163), the compound 2 (1162), the compound 3 (1161), and the compound 4 (1164), which were purely separated from the aliquots 116V and 116VI, and as a result, it could be confirmed that the osteoblast differentiation ability was increased in the compounds 1, 3, and 4. […] To study a mechanism with respect to osteoblast differentiation ability, the C3H/10T1/2 cell lines were treated with the compound 1 and the compound 4 for 6 days, respectively. […] Also, the C3H/10T1/2 cell lines were treated with the compound 1 and the compound 4 for 6 days, respectively. […] Furthermore, it could be ascertained that combining of Runx2 and TAZ proteins was increased by treatment of the compounds and thus the activity of Runx2-meditated transcription was increased. The compound 5, which is an ester derivative of the compound 1 (1163), was synthesized in order to prepare a material having more excellent bioactivity, and the structure of the compound 5 obtained thus was determined. […]

[1] = Solubility in organic solvents; assay type: physicochemical
C3H/10T1/2 cells = assay: Osteoblast formation activity (calcium deposition assay, Alizarin Red S); assay type: cell-based, mouse
Procedure: C3H/10T1/2 cells, which are mouse mesenchymal progenitor cells purchased from ATCC, were diluted in DMEM (Dulbecco's Modified Eagle Medium) medium containing 5.958 g/L HEPES, 3.7 g/L sodium bicarbonate, and 10% FBS (fetal bovine serum), and cultured in 24-well culture plates at a density of 4×10^4 cells/well, in the presence of 5% CO2 at 37° C. for 2 days. The cultured cells were grown to 90˜100% confluency in the culture plates, the cells were cultured in DMEM medium containing 10% FBS, to which 10 mM of β-glycerophosphate and 50μ/ml of ascorbic acid were added, in the presence of 5% CO2 at 37° C. for 6 days, to induce differentiation into osteoblast. The medium was exchanged every other day during differentiation. The C3H/10T1/2 cell line, in which differentiation into the osteoblast was induced, was washed with PBS (Phosphate Buffered Saline) once, and fixed with 70% ethanol at 20° C. for 1 hour. The cells after fixing were washed with cold PBS three times, and stained with 40 mM Alizarin Red S dye solution at room temperature for 20 minutes. The dye solution was removed and the cells were washed with distilled water three times in order to selectively observe only the cells differentiated into the osteoblast.
An aliquot 116V and an aliquot 116VI extracted and partitioned from sponges are dissolved in a DMSO solvent, and used to treat the C3H/10T1/2 cell line, mesenchymal progenitor cells, at concentrations of 1, 2.5, 5, 10, and 20 ug/ml. […] Since then, the same experiment was performed on the compound (1163), the compound 2 (1162), the compound 3 (1161), and the compound 4 (1164), which were purely separated from the aliquots 116V and 116VI, and as a result, it could be confirmed that the osteoblast differentiation ability was increased in the compounds 1, 3, and 4. […] To study a mechanism with respect to osteoblast differentiation ability, the C3H/10T1/2 cell lines were treated with the compound 1 and the compound 4 for 6 days, respectively. […] Also, the C3H/10T1/2 cell lines were treated with the compound 1 and the compound 4 for 6 days, respectively. […] Furthermore, it could be ascertained that combining of Runx2 and TAZ proteins was increased by treatment of the compounds and thus the activity of Runx2-meditated transcription was increased. The compound 5, which is an ester derivative of the compound 1 (1163), was synthesized in order to prepare a material having more excellent bioactivity, and the structure of the compound 5 obtained thus was determined. […] Therefore, the compounds of the present invention and derivatives thereof are expected to promote the differentiation of the osteoblast and thus play an innovative role in treatment of osteoporosis.

direct binding with the LXR protein (LXR protein): directly bound
SMILES: CC(C)=CCC/C(C)=C/[C@H]1CC(C)=C[C@@]2(C=C(CO)[C@@H]3CC(=O)C(C)=C[C@@H]3O2)O1 [Compound 1]
liver expression of fatty acid synthetic genes and transporter genes of transporting fats to the liver (C57BL/6 mice; mouse liver, real-time PCR): inhibits the expression
fatty liver inhibitory efficacy (C57BL/6 mice; oral administration, T0901317-induced fatty liver, C57BL/6 mice): very superior fatty liver inhibitory efficacy
body weight among the treatment group and the control groups (C57BL/6 mice; oral administration, fatty liver-induced C57BL/6 mice): no difference in body weight
expression of fatty acid biosynthesis genes SREBP1c, ACC, and FAS (HepG2 cells): inhibited the expression
adipocyte differentiation inhibitory ability (3T3-L1 cells): very superior adipocyte differentiation inhibitory ability
protein expression of Runx2 and TAZ (Runx2 and TAZ): increased
Solubility [1]: Easily Dissolved in Organic Solvent of Acetone, Methanol, DMSO, etc.
osteoblast differentiation ability, concentration dependence (C3H/10T1/2 cells; C3H/10T1/2, 1, 2.5, 5, 10, and 20 ug/ml, 6 days): remarkably increased at the concentrations of up to 10 ug/ml in a concentration-dependent manner
osteoblast differentiation ability (C3H/10T1/2 cells; C3H/10T1/2, calcium deposition): increased
concentration at which cytotoxicity was observed (C3H/10T1/2 cells; C3H/10T1/2 during osteoblast differentiation): 20 µg/mL

— patent US8703813B2, “Compound with spiro chiral carbon backbone, preparation method thereof, and pharmaceutical composition containing the same” (SNU R & DB Foundation, priority 2008, dated 2014)
